Results published in patent US9611221B2, “Histone demethylase inhibitors” (CELGENE QUANTICEL RESEARCH, INC., priority 2012, dated 2017).

What follows are compounds tested against JMJD2C (Homo sapiens (Human), UniProt Q9H3R0) (assay: JMJD2C in vitro enzyme inhibition assay (TR-FRET)). Details: 0.3 nM JMJD2C, 300 nM H3K9me3-biotin peptide, 2 μM alpha-ketoglutaric acid.
Chain of JMJD2C (Q9H3R0 2-372): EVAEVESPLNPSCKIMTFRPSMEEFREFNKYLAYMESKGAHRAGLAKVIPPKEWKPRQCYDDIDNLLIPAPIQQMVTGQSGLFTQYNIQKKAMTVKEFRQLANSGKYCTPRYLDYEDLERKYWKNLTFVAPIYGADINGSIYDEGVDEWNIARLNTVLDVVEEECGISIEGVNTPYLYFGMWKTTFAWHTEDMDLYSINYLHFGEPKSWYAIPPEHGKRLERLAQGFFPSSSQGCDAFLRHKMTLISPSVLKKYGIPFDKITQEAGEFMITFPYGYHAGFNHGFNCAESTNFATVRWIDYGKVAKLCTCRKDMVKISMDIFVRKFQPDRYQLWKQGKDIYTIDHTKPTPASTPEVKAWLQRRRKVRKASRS
Format: biochemical
Excerpt: This assay determines the ability of a test compound to inhibit Jarid1A, Jarid1B, and JMJD2C demethylase activity. Baculovirus expressed Jarid1A (GenBank Accession #NM_001042603, AA1-1090) was purchased from BPS Bioscience (Cat#50110). Baculovirus expressed Jarid1B (GenBank Accession #NM_006618, AA 2-751) was purchased from BPS Bioscience (Cat #50121) or custom made by MolecularThroughput. Baculovirus expressed JMJD2C (GenBank Accession #BC143571, AA 2-372) was purchased from BPS Bioscience (Cat#50105).
The ability of test compounds to inhibit the activity of JMJD2C was determined in 384-well plate format under the following reaction conditions: 0.3 nM JMJD2C, 300 nM H3K9me3-biotin labeled peptide (Anaspec cat #64360), 2 μM alpha-ketoglutaric acid in assay buffer of 50 mM HEPES, pH7.3, 0.005% Brij35, 0.5 mM TCEP, 0.2 mg/ml BSA, 50 μM sodium L-ascorbate, and 2 μM ammonium iron(II) sulfate. Reaction product was determined quantitatively by TR-FRET after the addition of detection reagent Phycolink Streptavidin-allophycocyanin (Prozyme) and Europium-anti-di-methylated histone H3 lysine 9 (H3K9me2) antibody (PerkinElmer) in the presence of 5 mM EDTA in LANCE detection buffer (PerkinElmer) at a final concentration of 50 nM and 1 nM, respectively.
The reaction mixture was incubated at room temperature for 30 minutes, and terminated by the addition of 6 μl of 5 mM EDTA in LANCE detection buffer containing 100 nM Phycolink Streptavidin-allophycocyanin and 2 nM Europium-anti-H3K9me2 antibody. Plates were read by EnVisionMultilabel Reader in TR-FRET mode (excitation at 320 nm, emission at 615 nm and 665 nm) after 1 hour incubation at room temperature. A ratio was calculated (665/615) for each well and fitted to determine inhibition constant (IC50).
`O=C(O)c1ccncc1NCC1CCOc2cc(C3CC3)ccc21` (centres unmarked) [Example 75, 3-{[(7-cyclopropyl-3,4-dihydro-2H-chromen-4-yl)methyl]amino}pyridine-4-carboxylic acid] was tested, and the IC50 was 100 to 1000 nM. Compound `O=C(O)c1ccncc1NC[C@@H]1CCOc2cc(-c3ccc(F)cc3)ccc21` [Example 94, 3-({[(4R)-7-(4-fluorophenyl)-3,4-dihydro-2H-chromen-4-yl]methyl}amino)pyridine-4-carboxylic acid] has an IC50 of 1000 to 10000 nM. For `COc1cccc2c1CCCC2CNc1cnccc1C(=O)O` (centres unmarked) [Example 74, 3-{[(5-methoxy-1,2,3,4-tetrahydronaphthalen-1-yl)methyl]amino}pyridine-4-carboxylic acid], the IC50 was 100 to 1000 nM. Compound `O=C(O)c1ccncc1NC[C@H]1CCCc2cc(OCCC3CC3)ccc21` [Example 97, 3-({[(1S)-6-(2-cyclopropylethoxy)-1,2,3,4-tetrahydronaphthalen-1-yl]methyl}amino)pyridine-4-carboxylic acid] has an IC50 of 100 to 1000 nM. In the case of `O=C(O)c1ccncc1NCC1(O)CCCc2c(F)cccc21` (centres unmarked) [Example 55, 3-{[(5-fluoro-1-hydroxy-1,2,3,4-tetrahydronaphthalen-1-yl)methyl]amino}pyridine-4-carboxylic acid], the IC50 is reported as 100 to 1000 nM. Work on `O=C(O)c1ccncc1NC[C@@H]1CCOc2cc(-c3ccccc3)ccc21` [Example 84, 3-({[(4R)-7-phenyl-3,4-dihydro-2H-chromen-4-yl]methyl}amino)pyridine-4-carboxylic acid] yielded an IC50 of 100 to 1000 nM. With `O=C(O)c1ccncc1NCC1CCCc2cc(OCCc3ccccc3)ccc21` (centres unmarked) [Example 89, 3-({[6-(2-phenylethoxy)-1,2,3,4-tetrahydronaphthalen-1-yl]methyl}amino)pyridin-4-carboxylic acid] the IC50 was 100 to 1000 nM. `O=C(O)c1ccncc1NCC1CCCc2cc(OC(F)(F)F)ccc21` (centres unmarked) [Example 92, 3-({[6-(trifluoromethoxy)-1,2,3,4-tetrahydronaphthalen-1-yl]methyl}amino)pyridine-4-carboxylic acid] showed an IC50 of 1000 to 10000 nM. In the case of `O=C(O)c1ccncc1NC[C@H]1CCOc2cc(-c3ccccc3)ccc21` [Example 83, 3-({[(4S)-7-phenyl-3,4-dihydro-2H-chromen-4-yl]methyl}amino)pyridine-4-carboxylic acid], the IC50 is reported as 100 to 1000 nM. With `CN1CCC(CNc2cnccc2C(=O)O)c2ccccc21` (centres unmarked) [Example 82, 3{[(1-methyl-1,2,3,4-tetrahydroquinolin-4-yl)methyl]amino}pyridine-4-carboxylic acid] the IC50 was 100 to 1000 nM. In the case of `COc1ccc2c(c1)CCC[C@@H]2CNc1cnccc1C(=O)O` [Example 61, 3-({[(1S)-6-methoxy-1,2,3,4-tetrahydronaphthalen-1-yl]methyl}amino)pyridine-4-carboxylic acid], the IC50 is reported as 100 to 1000 nM. With `O=C(O)c1ccncc1NCC1CCCc2ccc(-c3ccccc3)cc21` (centres unmarked) [Example 73, 3-{[(7-phenyl-1,2,3,4-tetrahydronaphthalen-1-yl)methyl]amino}pyridine-4-carboxylic acid] the IC50 was 100 to 1000 nM. `O=C(O)c1ccncc1NCC1CCOc2c(F)cccc21` (centres unmarked) [Example 71, 3-{[(8-fluoro-3,4-dihydro-2H-chromen-4-yl)methyl]amino}pyridine-4-carboxylic acid] was tested, and the IC50 was at most 100 nM. Work on `O=C(O)c1ccncc1NC[C@@H]1CCCc2c(F)cccc21` [Example 57, 3-({[(1R)-5-fluoro-1,2,3,4-tetrahydronaphthalen-1-yl]methyl}amino)pyridine-4-carboxylic acid] yielded an IC50 of 100 to 1000 nM. `O=C(O)c1ccncc1NCC1CCCc2ccc(Cl)cc21` (centres unmarked) [Example 72, 3-{[(7-chloro-1,2,3,4-tetrahydronaphthalen-1-yl)methyl]amino}pyridine-4-carboxylic acid] showed an IC50 of 100 to 1000 nM. For `O=C(O)c1ccncc1NCC1CCCc2cc(OCC(F)(F)F)ccc21` (centres unmarked) [Example 90, 3-({[6-(2,2,2-trifluoroethoxy)-1,2,3,4-tetrahydronaphthalen-1-yl]methyl}amino)pyridine-4-carboxylic acid], the IC50 was 100 to 1000 nM. In the case of `O=C(O)c1ccncc1NC[C@@H]1CCOc2cc(-c3ccccc3F)ccc21` [Example 96, 3-({[(4R)-7-(2-fluorophenyl)-3,4-dihydro-2H-chromen-4-yl]methyl}amino)pyridine-4-carboxylic acid], the IC50 is reported as 1000 to 10000 nM. `O=C(O)c1ccncc1NCC1CCCc2cc(Oc3cccc(C(F)(F)F)n3)ccc21` (centres unmarked) [Example 104, 3-{[(6-{[6-(trifluoromethyl)pyridin-2-yl]oxy}-1,2,3,4-tetrahydronaphthalen-1-yl)methyl]amino}pyridine-4-carboxylic acid] showed an IC50 of 100 to 1000 nM. Work on `O=C(O)c1ccncc1NCC1=CCCc2ccc(F)cc21` [Example 51, 3-{[(7-fluoro-3,4-dihydronaphthalen-1-yl)methyl]amino}pyridine-4-carboxylic acid] yielded an IC50 of 100 to 1000 nM. Work on `O=C(O)c1ccncc1NC[C@@H]1CCCc2cc(OCCC3CC3)ccc21` [Example 98, 3-({[(1R)-6-(2-cyclopropylethoxy)-1,2,3,4-tetrahydronaphthalen-1-yl]methyl}amino)pyridine-4-carboxylic acid] yielded an IC50 of 1000 to 10000 nM. For `CC(C)Oc1ccc2c(c1)CCCC2CNc1cnccc1C(=O)O` (centres unmarked) [Example 64], the IC50 was 100 to 1000 nM. `Cc1ccc2c(c1C)CCCC2CNc1cnccc1C(=O)O` (centres unmarked) [Example 103, 3-{[(5,6-dimethyl-1,2,3,4-tetrahydronaphthalen-1-yl)methyl]amino}pyridine-4-carboxylic acid] gave an IC50 of 100 to 1000 nM. “3-{[(7-fluoro-3,4-dihydro-2H-chromen-4- yl)methyl]amino}pyridine-4-carboxylic acid [Example 65]” showed an IC50 of at most 100 nM. In the case of `O=C(O)c1ccncc1NC[C@H]1CCOc2cc(C3CC3)ccc21` [Example 87, 3-({[(4S)-7-cyclopropyl-3,4-dihydro-2H-chromen-4-yl]methyl}amino)pyridine-4-carboxylic acid], the IC50 is reported as at most 100 nM. With `O=C(O)c1ccncc1NCC1CCOc2cc(CCC3CC3)ccc21` (centres unmarked) [Example 91, 3-({[7-(2-cyclopropylethyl)-3,4-dihydro-2H-chromen-4-yl]methyl}amino)pyridine-4-carboxylic acid] the IC50 was 100 to 1000 nM. In the case of `O=C(O)c1ccnnc1NCC1CCCc2cc(OCCC(F)(F)F)ccc21` (centres unmarked) [Example 101, 3-({[6-(3,3,3-trifluoropropoxy)-1,2,3,4-tetrahydronaphthalen-1-yl]methyl}amino)pyridazine-4-carboxylic acid], the IC50 is reported as 100 to 1000 nM. Compound `COc1ccc2c(c1)CCC[C@H]2CNc1cnccc1C(=O)O` [Example 62, 3-({[(1R)-6-methoxy-1,2,3,4-tetrahydronaphthalen-1-yl]methyl}amino)pyridine-4-carboxylic acid] has an IC50 of 100 to 1000 nM. Work on `O=C(O)c1ccncc1NCC1CCOc2cc(Cl)ccc21` (centres unmarked) [Example 66, 3-{[(7-chloro-3,4-diydro-2H-chromen-4-y)methyl]amino}pyridine-4-carboxylic acid] yielded an IC50 of 100 to 1000 nM. In the case of `Cc1cc(C)c2c(c1)C(CNc1cnccc1C(=O)O)CCC2` (centres unmarked) [Example 52, 3-{[(5,7-dimethyl-1,2,3,4-tetrahydronaphthalen-1-yl)methyl]amino}pyridine-4-carboxylic acid], the IC50 is reported as 1000 to 10000 nM. In the case of `O=C(O)c1ccncc1NCC1CCCc2c(OCC3CC3)cccc21` (centres unmarked) [Example 76], the IC50 is reported as 1000 to 10000 nM. Work on `O=C(O)c1ccncc1NC[C@@H]1CCOc2cc(-c3cccc(F)c3)ccc21` [Example 86, 3-({[(4R)-7-(3-fluorophenyl)-3,4-dihydro-2H-chromen-4-yl]methyl}amino)pyridine-4-carboxylic acid] yielded an IC50 of 1000 to 10000 nM. With “3-{[(6-chloro-1-hydroxy-1,2,3,4- tetrahydronaphthalen-1- yl)methyl]amino}pyridine-4-carboxylic acid [Example 67]” the IC50 was 100 to 1000 nM. Work on `O=C(O)c1ccncc1NCC1CCCc2cc(OCC3CC3)ccc21` (centres unmarked) [Example 81] yielded an IC50 of 100 to 1000 nM. “3-{[(6-chloro-1,2,3,4-tetrahydronaphthalen-1- yl)methyl]amino}pyridine-4-carboxylic acid [Example 68]” gave an IC50 of 100 to 1000 nM. Work on `O=C(O)c1ccncc1NCC1CCCc2c(Oc3ccccc3)cccc21` (centres unmarked) [Example 77, 3-{[(5-phenoxy-1,2,3,4-tetrahydronaphthalen-1-yl)methyl]amino}pyridine-4-carboxylic acid] yielded an IC50 of 1000 to 10000 nM. `O=C(O)c1ccncc1NCC1CCSc2ccccc21` (centres unmarked) [Example 78, 3-[(3,4-dihydro-2H-thiochromen-4-ylmethyl)amino]pyridine-4-carboxylic acid] was tested, and the IC50 was 100 to 1000 nM. `CC1(C)CCC(CNc2cnccc2C(=O)O)c2ccccc21` (centres unmarked) [Example 59, 3-{[(4,4-dimethyl-1,2,3,4-tetrahydronaphthalen-1-yl)methyl]amino}pyridine-4-carboxylic acid] showed an IC50 of 100 to 1000 nM. `O=C(O)c1ccncc1NC[C@H]1CCOc2cc(-c3ccc(F)cc3)ccc21` [Example 93, 3-({[(4S)-7-(4-fluorophenyl)-3,4-dihydro-2H-chromen-4-yl]methyl}amino)pyridine-4-carboxylic acid] gave an IC50 of 100 to 1000 nM.
